Test results as given in patent publication US8759549B2, “Compound extracted from Antrodia cinnamomea and pharmaceutical composition comprising the same” (priority 2010, dated 2014).
Like-named read-outs stand apart in the source and are kept apart here.

What was measured:
[1] = test system: HT29 human colorectal cancer cell line; assay: In vitro anti-cancer activity, HT29 human colorectal cancer cells; format: cell-based; settings: HT-29
Method: (§1) The anti-cancer effect compound of formula (2) and compounds (3) and (4) were evaluated using the HT29 and Colo205 human colorectal cancer cell lines.
(§2) Human colorectal cancer cells HT29 and Colo205 were plated in a 96-well plate, at a concentration of 1×10^4-5 cells/well. The human colorectal cancer cells were incubated at 37° C. with 5% CO2 overnight. These cancer cells were washed three times with a serum free medium or a phosphate buffer solution (PBS) the next day. The compound of Formula (2) and Compounds (3) and (4) were added to the HT29 and Colo205 human colorectal cancer cells respectively. The experiment was performed three times and the average IC50 value was calculated.

[2] = test system: Colo205 human colorectal cancer cell line; assay: In vitro anti-cancer activity, Colo205 human colorectal cancer cells; format: cell-based; settings: COLO 205
Method: as §1, §2

[3] = HT29 human colorectal cancer cells, average of three experiments, FIG. 6, read-out: IC50
[4] = Colo205 human colorectal cancer cells, average of three experiments, FIG. 7, read-out: IC50

Compound	IC50 [1, 3]	IC50 [2, 4]	IC50 ([1]; Homo sapiens)	IC50 ([2]; Homo sapiens)
C=C(C)C#Cc1c(C)c(OC)c2c(c1OC)OCO2 [formula (2), 1,2-methylenedioxy-3,6-bismethoxy-4-(3-methyl-3-alkene-1-butyne)-5-methylbenzene]	66 µM	9 µM	–	–
COc1cc(C)c(OC)c2c1OCO2 [Compound (4)]	> 100 µM	> 100 µM	–	–
C=C(C)C#Cc1c(C)c(OC)c(OC)c(OC)c1OC [compound (3)]	–	–	59 µM	42 µM
